Measured values: US20100055168A1, “CATIONIC LIPIDS AND USES THEREOF” (ABBOTT LABORATORIES, priority 2008, published 2010)

Columns and labels:
[1] = Particle sizing assay of in vitro formulations (dynamic light scattering, DynaPro plate reader); format: physicochemical; settings: Lipid:siRNA 25:1
Method: (§1) The siRNA concentrations were measured using Quanti-iT RiboGreen RNA reagent (Molecular Probes, (R11490)). Vesicle sizes were characterized by dynamic light scattering with a DynaPro™ Plate Reader (Wyatt Technology) in 96-well half-area UV plate (Coring) after diluting the formulation sample (20 μL) in phosphate buffered saline (80 μL) at a pH of about 7-8. A 1% agarose gel-based assay was used for analyzing nuclease degradation and protection. Encapsulation efficiency (EE) was calculated using data obtained from a RiboGreen assay.
Particle sizes and size distributions (PDI) were characterized by using dynamic light scattering (DLS). A DLS plate reader (Dynapro™, Wyatt Technology) was used for the DLS measurement. This DLS plate reader uses an 830 nm laser and the scattering angle is 158°. It also can control temperature from 4° C. to 70° C. A 96-well format was employed for the samples.
Samples for DLS analysis were prepared by mixing 20 μL of each sample stock solution with 80 μL PBS directly in the 96-well plate (#3697, Coming). Sample mixing was accomplished using a microplate shaker (Orbis, Mikura Ltd.). Plates were read at 20° C. with an acquisition time of 50 seconds for each sample, and data was analyzed with Wyatt Technology's Dynamics V6 software. To rule out potential multiple scattering artifacts, a second plate at […] reduced sample concentrations was independently prepared by mixing 5 μL stock solutions with 95 μL PBS. Under our experimental conditions the results at the two concentrations were very similar, and the final reported result for each sample represents the average of values obtained from the two plates.

[2] = Ribogreen assay for siRNA encapsulation efficiency of Lipid-Based Particles; format: physicochemical; settings: Lipid:siRNA 25:1
Method: The mixing solution of cationic lipids, cholesterol, non-cationic lipids and PEG-lipids was prepared in ethanol (total concentration at 10 mg/mL). siSTABLE (purchased from ThermoFisher) (sense-5′ GGGGAAAGCUGGCAAGAUUUU-3′ SEQ ID NO: 1) antisense-5′-AAUCUUGCCAGCUUUCCCCUU-3′ SEQ ID NO: 2) % stock solution was prepared in 10 mg/mL of solution by dissolving 10 mg siRNA in 1 mL of RNAse-free UltraPure Water. The calculated amount of siRNA solution was added to 1 mL of citrate buffer (pH 4.0, 20 mM), to provide an siRNA concentration of 0.2 mg/mL, and warmed to 60° C. The calculated amount of lipid solution was warmed to 60° C., transferred to a 0.5 mL syringe with 28½ gauge needle, and injected into the citrate buffer with stirring at 60° C. After 3 minutes, 3 mL of PBS solution at room temperature (pH 7.4) was added into the lipid mixture with stirring. The Lipid-Based Particle solution was cooled to room temperature.
as §1
RNA concentration and encapsulation efficiency were determined using a Quant-iT® Ribogreen RNA reagent and kit available from Invitrogen. The siRNA was released from the Lipid-Based Particle using one of the following reagents: ethanol, Triton X-100, or phenol/chloroform. The siRNA concentration is quantified using fluorescent reading at 480 nm/520 nm.
A round bottom flask was submerged into a 65° C. water bath. Citrate buffer (37.5 ml) of pH 4.0 was pipetted into the flask. The solution was stirred by a magnetic stirring bar at a speed of 900 rpm. Both the pH 4.0 citrate buffer and the lipid solution were pre-warmed in the 65° C. water bath for about 3 minutes. A siRNA solution (0.5 ml) was pipetted into the pH 4.0 citrate buffer. The 12.5 ml lipid mixture solution was injected through a 27 gauge needle into the citrate buffer in about 30 seconds. The needle tip was inserted into the solution during the injection. The resulting solution was stirred for 5 minutes at a speed of 900 rpm. The flask was pulled up from the water bath and a 50 ml pH 7.4 PBS buffer was added into the flask. The final solution was further mixed at a speed of 900 rpm for 5 minutes. For the diafiltration process, a dialysis filter (Millipore, 100K, Cat #PXB100C50) was used to remove ethanol in the above solution. When the volume was reduced to 20 ml during the initial diafiltration, 20 ml of pH 7.4 PBS was added to the sample solution. The diafiltration was continued until the volume was reduced to 20 ml. The diafiltration process was repeated 4 times. The volume of the sample solution was reduced to about 12 ml and pH 7.4 PBS was added to make the final volume of 15 ml. The 15 ml solution was filtered sequentially through the 0.45 and 0.22 μm sterile PVDF membrane filters (Millipore) and immediately transferred into a sterile vial.

[3] = in vitro formulation a: Cationic lipid/Example 56/DSPC/Chol 45/10/15/30 wt %
[4] = in vitro formulation b: Cationic lipid/PEG-Chol/DSPC/Chol 45/10/15/30 wt %

CCCCC/C=C\C/C=C\CCCCCCCCOCC(COCCCCCCCC/C=C\C/C=C\CCCCC)N1CCCC1 [Example 1, 1-(2-((9Z,12Z)-octadeca-9,12-dienyloxy)-1-(((9Z,12Z)-octadeca-9,12-dienyloxy)methyl)ethyl)pyrrolidine]
PDI (size distribution) [1, 3]: 0.20 | Size [1, 3]: 170 nm

CCCCC/C=C\C/C=C\CCCCCCCCOCC(COCCCCCCCC/C=C\C/C=C\CCCCC)N(C)C [Example 2, N,N-dimethyl-N-(2-((9Z,12Z)-octadeca-9,12-dienyloxy)-1-(((9Z,12Z)-octadeca-9,12-dienyloxy)methyl)ethyl)amine]
Size [1, 3]: 134 nm

CCCCC/C=C\C/C=C\CCCCCCCCOCC(COCCCCCCCC/C=C\C/C=C\CCCCC)N1CCOCC1 [Example 5, 4-(2-((9Z,12Z)-octadeca-9,12-dienyloxy)-1-(((9Z,12Z)-octadeca-9,12-dienyloxy)methyl)ethyl)morpholine]
PDI (size distribution) [1, 3]: 0.14 | Size [1, 3]: 143 nm

CCCCC/C=C\C/C=C\CCCCCCCCOCC(COCCCCCCCC/C=C\C/C=C\CCCCC)NCCN1CCN(C)CC1 [Example 8, N-(2-(4-methylpiperazin-1-yl)ethyl)-N-(2-((9Z,12Z)-octadeca-9,12-dienyloxy)-1-(((9Z,12Z)-octadeca-9,12-dienyloxy)methyl)ethyl)amine]
Size [1, 4]: 107.6 nm | % Encapsulation Efficiency [2, 4]: 81.8%

CCCCC/C=C\C/C=C\CCCCCCCCOCC(COCCCCCCCC/C=C\C/C=C\CCCCC)N1CCN(CCCN(C)C)CC1 [Example 10, N,N-dimethyl-N-(3-(4-(2-((9Z,12Z)-octadeca-9,12-dienyloxy)-1-(((9Z,12Z)-octadeca-9,12-dienyloxy)methyl)ethyl)piperazin-1-yl)propyl)amine]
Size [1, 4]: 112 nm | % Encapsulation Efficiency [2, 4]: 72.6%

CCCCC/C=C\C/C=C\CCCCCCCCOCC(N)COCCCCCCCC/C=C\C/C=C\CCCCC [Example 11, 1,3-bis((9Z,12Z)-octadeca-9,12-dienyloxy)propan-2-amine]
Size [1, 3]: 132 nm | % Encapsulation Efficiency [2, 3]: 96.0%

CCCCC/C=C\C/C=C\CCCCCCCCOCC(COCCCCCCCC/C=C\C/C=C\CCCCC)NCC1CCN(C)CC1 [Example 12, N-((1-methylpiperidin-4-yl)methyl)-N-(2-((9Z,12Z)-octadeca-9,12-dienyloxy)-1-(((9Z,12Z)-octadeca-9,12-dienyloxy)methyl)ethyl)amine]
Size [1, 4]: 119.8 nm | % Encapsulation Efficiency [2, 4]: 84.9%

CCCCC/C=C\C/C=C\CCCCCCCCOCC(COCCCCCCCC/C=C\C/C=C\CCCCC)NCc1cccc(CN2CCCC2)c1 [Example 13, N-(2-((9Z,12Z)-octadeca-9,12-dienyloxy)-1-(((9Z,12Z)-octadeca-9,12-dienyloxy)methyl)ethyl)-N-(3-(pyrrolidin-1-ylmethyl)benzyl)amine]
Size [1, 3]: 146 nm | % Encapsulation Efficiency [2, 3]: 97.1%

CCCCC/C=C\C/C=C\CCCCCCCCOCC(COCCCCCCCC/C=C\C/C=C\CCCCC)N(C)CCCN1CCCC1 [Example 14, N-methyl-N-(2-((9Z,12Z)-octadeca-9,12-dienyloxy)-1-(((9Z,12Z)-octadeca-9,12-dienyloxy)methyl)ethyl)-N-(3-pyrrolidin-1-ylpropyl)amine]
Size [1, 4]: 128.4 nm | % Encapsulation Efficiency [2, 4]: 88.3%

CCCCC/C=C\C/C=C\CCCCCCCCOCC(COCCCCCCCC/C=C\C/C=C\CCCCC)NCc1cccc(CN2CCN(C)CC2)c1 [Example 15, N-(3-((4-methylpiperazin-1-yl)methyl)benzyl)-N-(2-((9Z,12Z)-octadeca-9,12-dienyloxy)-1-(((9Z,12Z)-octadeca-9,12-dienyloxy)methyl)ethyl)amine]
Size [1, 3]: 116 nm | % Encapsulation Efficiency [2, 3]: 96.2%

CCCCC/C=C\C/C=C\CCCCCCCCOCC(COCCCCCCCC/C=C\C/C=C\CCCCC)N(C)CC1CCN(C)CC1 [Example 16, N-methyl-N-((1-methylpiperidin-4-yl)methyl)-N-(2-((9Z,12Z)-octadeca-9,12-dienyloxy)-1-(((9Z,12Z)-octadeca-9,12-dienyloxy)methyl)ethyl)amine]
Size [1, 4]: 130 nm | % Encapsulation Efficiency [2, 4]: 93.1%

CCCCC/C=C\C/C=C\CCCCCCCCOCC(COCCCCCCCC/C=C\C/C=C\CCCCC)N(C)CCCN(C)C [Example 17, N,N,N′-trimethyl-N′-(2-((9Z,12Z)-octadeca-9,12-dienyloxy)-1-(((9Z,12Z)-octadeca-9,12-dienyloxy)methyl)ethyl)propane-1,3-diamine]
Size [1, 4]: 121.8 nm | % Encapsulation Efficiency [2, 4]: 87.1%

CCCCC/C=C\C/C=C\CCCCCCCCOCC(COCCCCCCCC/C=C\C/C=C\CCCCC)CN1CCCC1 [Example 24, 1-(3-((9Z,12Z)-octadeca-9,12-dienyloxy)-2-(((9Z,12Z)-octadeca-9,12-dienyloxy)methyl)propyl)pyrrolidine]
% Encapsulation Efficiency [2, 4]: 91.7%

CCCCC/C=C\C/C=C\CCCCCCCCOCC(COCCCCCCCC/C=C\C/C=C\CCCCC)NCCCNCCCCNCCCN [Example 25, N-(3-aminopropyl)-N′-{3-[(2-[(9Z,12Z)-octadeca-9,12-dienyloxy]-1-{[(9Z,12Z)-octadeca-9,12-dienyloxy]methyl}ethyl)amino]propyl}butane-1,4-diamine]
% Encapsulation Efficiency [2, 4]: 92.3%

CCCCC/C=C\C/C=C\CCCCCCCCOCC(CNCCCN1CCCC1)COCCCCCCCC/C=C\C/C=C\CCCCC [Example 26, N-(3-[(9Z,12Z)-octadeca-9,12-dienyloxy]-2-{[(9Z,12Z)-octadeca-9,12-dienyloxy]methyl}propyl)-N-(3-pyrrolidin-1-ylpropyl)amine]
% Encapsulation Efficiency [2, 4]: 99.9%

CCCCC/C=C\C/C=C\CCCCCCCCOCC(COCCCCCCCC/C=C\C/C=C\CCCCC)CN(C)C [Example 27, N,N-dimethyl-N-(3-[(9Z,12Z)-octadeca-9,12-dienyloxy]-2-{[(9Z,12Z)-octadeca-9,12-dienyloxy]methyl}propyl)amine]
% Encapsulation Efficiency [2, 4]: 71.9%

CCCCC/C=C\C/C=C\CCCCCCCCOCC(COCCCCCCCC/C=C\C/C=C\CCCCC)COC(=O)NCCN(CC)CC [Example 28, 3-[(9Z,12Z)-octadeca-9,12-dienyloxy]-2-{[(9Z,12Z)-octadeca-9,12-dienyloxy]methyl}propyl 2-(diethylamino)ethylcarbamate]
% Encapsulation Efficiency [2, 4]: 93.0%

CCCCC/C=C\C/C=C\CCCCCCCCOCC(COCCCCCCCC/C=C\C/C=C\CCCCC)COC(=O)NCCN1CCCC1 [Example 29, 3-[(9Z,12Z)-octadeca-9,12-dienyloxy]-2-{[(9Z,12Z)-octadeca-9,12-dienyloxy]methyl}propyl 2-pyrrolidin-1-ylethylcarbamate]
% Encapsulation Efficiency [2, 4]: 95.0%

CCCCC/C=C\C/C=C\CCCCCCCCOCC(COCCCCCCCC/C=C\C/C=C\CCCCC)COC(=O)NCCN(C)C [Example 30, 3-[(9Z,12Z)-octadeca-9,12-dienyloxy]-2-{[(9Z,12Z)-octadeca-9,12-dienyloxy]methyl}propyl 2-(dimethylamino)ethylcarbamate]
% Encapsulation Efficiency [2, 4]: 95.0%
